# Data reported in patent US9107919B2, “Pharmaceutical compositions comprising imidazoquinolin(amines) and derivatives thereof suitable for local administration” (priority 2009, dated 2015).
# Tests used:
# [1] = Imiquimod solubility in glacial acetic acid and buffers (HPLC/UV); type: physicochemical
# Method: The solubility was experimentally determined weighing 1200 mg of drug, adding 10 ml of glacial acetic acid and gently shaking the dispersion for 24 hours. This sample, after filtration (0.22 μm Millipore membrane filter) was analyzed by HPLC for the imiquimod content and its pH was measured.
# Imiquimod (738 mg) was initially dissolved in glacial acetic acid (10 ml). A volume of this solution was appropriately diluted with phosphate buffer pH 7.0 (0.1 M), citrate buffer pH 6.0 (0.1 M) or acetate buffer pH 5.0 (0.1 M) to prepare systems containing 2.0% of drug. The samples, after filtration by 0.22 μm Millipore membrane filter, were spectrophotometrically and chromatographically analyzed for the imiquimod content. The pH was determined.
# [2] = Imiquimod solubility in different solvent systems; type: physicochemical
# Method: The dispersions have been centrifuged at 10,000 rpm for 10 minutes and the liquid phases collected and stored at room temperature until analysed. The imiquimod concentration in these solutions was spectrophotometrically (λ=319 nm) determined after appropriated dilution.
# [3] = Solubility of imiquimod in short-chain acids, cyclodextrin and surfactants (spectrophotometry); type: physicochemical
# Method: Some inorganic and organic acids were considered as potential solubilizers of the drug. 100 mg imiquimod were dissolved in 10 ml of phosphoric acid 0.1 M, succinic acid 0.1 M, citric acid 0.1 M, acetic acid 0.01 M, 0.05 M, 0.1 M and lactic acid 0.01 M, 0.05 M, 0.088 M, and 0.1 M. These systems, after filtration, were spectrophotometrically analyzed for imiquimod and their pH was measured.
# Exactly weighed amounts of imiquimod (200 mg) and hydroxypropyl-β-cyclodextrin (HP-β-CD) (4000 mg) were dissolved in 10 ml of: • water • water at pH 5.0 (corrected with HCl) • water at pH 3.0 (corrected with HCl) • lactic acid solution (0.1 M)
# After shaking for 24 hours and filtration (0.22 μm Millipore membrane filter) the solubilised imiquimod was spectrophotometrically determined. The solution pH was also measured.
# Imiquimod (200 mg) was weighed and mixed with different amounts of surfactants (Tween 20, Tween 80, Cremophor EL or Pluronic F-68) in order to prepare formulations containing 0.5, 2.5 and 5% of surface active agent. Each mixture was added to 10 ml of lactic acid (0.1 M), gently shaken for 24 hours, filtered and analyzed by spectrophotometry and submitted to pH measurement.
# The imiquimod present in solution in compositions prepared with different acids and surfactants is spectrophotometrically determined and is shown in Table 5 together with the pH value.
# [4] = Toxicity of intravesical imiquimod in pigs (well-being, blood, bladder histology); type: in vivo, pig
# Method: Animal procedures were performed according to the protocol approved by the Institutional Animal Care and Use Committee (IACUC, Radboud University Nijmegen Medicai Centre, The Netherlands) and in compliance with national and European regulations. Female pigs (Dutch Landrace) were used for this study. The urogenital tract of the pig closely resembles the human urogenital system, and the shape of the penis and the preputial diverticulum prevent transurethral catheterization of a male pig. The sows were housed in special swine stainless steel battery cages and fed with universal swine food. The pigs were divided into four groups of six animals. Experimental procedures were performed under general anesthesia. […]
# Body temperature was measured rectally before and 1, 8 and 24 hours and one week after starting treatment. The well being of the animals was monitored by experienced staff by a selected protocollary list of possible signs and symptoms of toxicity before the experiment, just after the instillation and just before cystectomy.
# 24 hours after treatment three animals per group were sacrificed and cystectomised and 7 days after treatment the remaining animals underwent the same procedure. […] Material was embedded in paraffin, sectioned, and stained with H&E. The slides were evaluated for signs of inflammation and allergic reaction in submucosa and mucosa. […]
# [5] = Preliminary solubility tests of imiquimod (visual inspection); type: physicochemical
# Method: 48 mg of imiquimod was weighed and added of hydrochloric acid solutions at different concentrations: in particular 48.2 mg imiquimod were treated with 8 ml hydrochloric acid 0.1 N, 48.6 mg imiquimod with 9 ml hydrochloric acid 0.2 N and 48.4 mg imiquimod with 8 ml hydrochloric acid 2 N. After vortexing for 5 minutes, the samples were visually inspected.
# A weighed amount of drug (48.2 mg) was dissolved under agitation in 2 ml glacial acetic acid. After complete solubilisation a weighed aliquot of imiquimod (150 mg) was added to this solution in order to visually evaluate the maximum concentration of dissolved drug.
# The solubility of imiquimod at different pH values was determined. Two different procedures were used. The drug was dispersed in the buffer (without acetic acid as co-solvent). 72 mg imiquimod were dispersed with 10 ml citrate buffer, 155 mg imiquimod in 10 ml phosphate buffer and 192 mg in 10 ml acetate buffer. After vortexing for 5 minutes, each sample was visually inspected.
# A visual inspection of the systems was carried out.
# [6] = Pharmacokinetics of intravesical imiquimod in pigs (plasma, urine); type: in vivo, pig; details: female, Dutch Landrace, other: intravesical instillation, 50 mL of imiquimod 0.5% solution
# Method: Female pigs (Dutch Landrace) were used for this study. […] The pigs were divided into four groups of six animals. Experimental procedures were performed under general anesthesia. Premedication contained a mixture of 10 mg/kg ketamine and 0.5 to 1.0 mg/kg midazolam i.m. in one shot. Sedation maintenance was done by the same mixture in half the dosage every 45 minutes. The bladder was emptied without suction trauma prior to the start of treatment (via 12 French Foley catheter) and 50 mL of the study drug was instilled intravesically. […] The catheter was clamped and the instillation fluid was retained in the bladder for 60 minutes, after which the bladder was emptied. The bladder was not rinsed after emptying.
# Blood samples for pharmacokinetic analysis and cytokine measurement were collected in 4 mL lithium heparin tubes with gel divider before instillation of the study drug and 15, 30, 60, 120, 240 and 480 minutes after the beginning of drug instillation and also just before cystectomy. The samples were transferred on ice to the laboratory for plasma processing within 30 minutes. […]
# The post-treatment evacuated bladder content and the evacuated urine just before necropsy were collected for analysis of imiquimod concentration. […] Imiquimod concentrations in plasma and urine was determined by CHIMAN s.r.1. […]
# [7] = cited from earlier work
# [8] = Imiquimod diffusion/release, Franz cell with cellulose acetate membrane; type: physicochemical; details: 0.1 M lactic acid solution, 37° C., first hour
# Method: The imiquimod diffusion/release experiments have been performed with Franz cells with an effective diffusion area of 1.76 cm^2 and a receiving compartment volume of 14 ml: the donor compartment contained about 2 g of gel formulation, while the receiving one was filled with 0.1 M lactic acid solution (pH=3.5). Between the two compartments, a cellulose acetate membrane (MWCO=23000) was interposed. The experiments were carried out at 37° C. using a re-circulating bath and the fluid in the receptor chamber was stirred continuously at 300 rpm.
# At prefixed time intervals, the receiving phase was completely withdrawn and substituted by fresh acid solution. The receiving solution was submitted to UV analysis for imiquimod.
# [9] = Solubility of imiquimod in glycerol or propylene glycol; type: physicochemical; details: for imiquimod concentration in solution: 120° C. 24 h, then water added
# Method: Imiquimod was weighed (100 mg) and added of glycerol or propylene glycol to a volume of 10 ml. After shaking (at 120° C. for 24 hours) and cooling, 10 ml of water were added: the dispersions were filtered and the imiquimod amount in the liquid phases was determined. […] When propylene glycol was used the pH was 3.03 and the concentration of imiquimod in solution was 0.02%.
# [10] = 27% glacial acetic acid/73% acetate buffer pH 5.0 (0.1 M), system with 2.0% drug
# [11] = 27% glacial acetic acid/73% citrate buffer pH 6.0 (0.1 M), system with 2.0% drug
# [12] = 27% glacial acetic acid/73% phosphate buffer pH 7.0 (0.1 M), system with 2.0% drug
# [13] = HP-β-CD 40.0% (water at pH 3.0 corrected with HCl)
# [14] = HP-β-CD 40.0% (water at pH 5.0 corrected with HCl)
# [15] = lactic acid 0.100 M + Cremophor EL 0.5%
# [16] = lactic acid 0.100 M + Cremophor EL 2.5%
# [17] = lactic acid 0.100 M + Cremophor EL 5.0%
# [18] = lactic acid 0.100 M + HP-β-CD 40.0%
# [19] = lactic acid 0.100 M + Pluronic F68 0.5%
# [20] = lactic acid 0.100 M + Pluronic F68 2.5%
# [21] = lactic acid 0.100 M + Pluronic F68 5.0%
# [22] = lactic acid 0.100 M + Tween 20 0.5%
# [23] = lactic acid 0.100 M + Tween 20 2.5%
# [24] = lactic acid 0.100 M + Tween 20 5.0%
# [25] = lactic acid 0.100 M + Tween 80 0.5%
# [26] = lactic acid 0.100 M + Tween 80 2.5%
# [27] = lactic acid 0.100 M + Tween 80 5.0%
# [28] = dissolved in glacial acetic acid, then diluted with buffers
compound,measurement,setting,value
"CC(C)Cn1cnc2c(N)nc3ccccc3c21 [imiquimod, 1-isobutyl-1H-imidazo[4,5-c]quinolin-4-amine]",solubility in pure acetic and lactic acid,[1],> 7.5 % w/v
same,pH,[1]; 27% glacial acetic acid/73% acetate buffer pH 5.0,2.92
same,"Imiquimod solubility, HPLC",[1]; [10],1.89 % w/v
same,"Imiquimod solubility, UV",[1]; [10],1.92 % w/v
same,pH,[1]; 27% glacial acetic acid/73% citrate buffer pH 6.0,3.20
same,"Imiquimod solubility, HPLC",[1]; [11],0.86 % w/v
same,"Imiquimod solubility, UV",[1]; [11],0.72 % w/v
same,pH,[1]; 27% glacial acetic acid/73% phosphate buffer pH 7.0,2.92
same,"Imiquimod solubility, HPLC",[1]; [12],1.69 % w/v
same,"Imiquimod solubility, UV",[1]; [12],1.55 % w/v
same,"Imiquimod solubility, HPLC","[1]; 100% glacial acetic acid, 24 h shaking",7.50 % w/v
same,pH,[2]; 5% CD LA 01,3.90
same,imiquimod solubility,[2]; 5% CD LA 01 (5% HP-β-CD in 0.1 M lactic acid),1.23 % w/w
same,imiquimod solubility,[2]; 5% CD-16% PF127 LA 01,1.15 % w/w
same,pH,[2]; 5% CD-16% PF127 LA 01,4.05
same,pH,[2]; 5% PF127 LA 01,3.92
same,imiquimod solubility,[2]; 5% PF127 LA 01 (5% Poloxamer 407 in 0.1 M lactic acid),1.19 % w/w
same,pH,[2]; 15% CD LA 01,4.03
same,imiquimod solubility,[2]; 15% CD LA 01 (15% HP-β-CD in 0.1 M lactic acid),1.37 % w/w
same,imiquimod solubility,[2]; 15% CD-16% PF127 LA 01,1.22 % w/w
same,pH,[2]; 15% CD-16% PF127 LA 01,4.25
same,imiquimod solubility,[2]; 16% PF127 LA 01,1.10 % w/w
same,pH,[2]; 16% PF127 LA 01,3.99
same,imiquimod solubility,[2]; 20% PF127 LA 01,1.04 % w/w
same,pH,[2]; 20% PF127 LA 01,4.16
same,imiquimod solubility,[2]; DMSO,0.09 % w/w
same,imiquimod solubility,[2]; Glutamic acid 0.072M,0.54 % w/w
same,pH,[2]; Glutamic acid 0.072M,3.95
same,imiquimod solubility,[2]; Glycolic acid 0.1M,0.68 % w/w
same,pH,[2]; Glycolic acid 0.1M,3.82
same,pH,[2]; LA 0.025M,3.93
same,imiquimod solubility,"[2]; LA 0.025M, 25° C., 24 h",0.33 % w/w
same,pH,[2]; LA 0.05M,3.81
same,imiquimod solubility,"[2]; LA 0.05M, 25° C., 24 h",0.58 % w/w
same,pH,[2]; LA 0.1M,3.73
same,imiquimod solubility,"[2]; LA 0.1M, 25° C., 24 h",1.18 % w/w
same,pH,[2]; LA 0.2M,3.52
same,imiquimod solubility,"[2]; LA 0.2M, 25° C., 24 h",2.20 % w/w
same,imiquimod solubility,[2]; N-Methyl-pyrrolidone,0.16 % w/w
same,imiquimod solubility,[2]; PEG 400,0.03 % w/w
same,imiquimod solubility,[2]; Tartaric acid 0.1M,0.01 % w/w
same,pH,[2]; Tartaric acid 0.1M,2.48
same,imiquimod in solution,[3]; [13],0.655 % w/v
same,pH,[3]; [13],3.05
same,imiquimod in solution,[3]; [14],0.143 % w/v
same,pH,[3]; [14],5.17
same,imiquimod in solution,"[3]; HP-β-CD 40.0%, no acid (water)",0.004 % w/v
same,pH,"[3]; HP-β-CD 40.0%, no acid (water)",7.09
same,imiquimod in solution,[3]; acetic acid 0.010 M,0.070 % w/v
same,pH,[3]; acetic acid 0.010 M,4.37
same,imiquimod in solution,[3]; acetic acid 0.050 M,0.220 % w/v
same,pH,[3]; acetic acid 0.050 M,4.08
same,imiquimod in solution,[3]; acetic acid 0.100 M,0.430 % w/v
same,pH,[3]; acetic acid 0.100 M,3.97
same,imiquimod in solution,[3]; citric acid 0.100 M,0.010 % w/v
same,pH,[3]; citric acid 0.100 M,2.10
same,imiquimod in solution,[3]; lactic acid 0.010 M,0.130 % w/v
same,pH,[3]; lactic acid 0.010 M,4.20
same,imiquimod in solution,[3]; lactic acid 0.050 M,0.530 % w/v
same,pH,[3]; lactic acid 0.050 M,3.90
same,imiquimod in solution,[3]; lactic acid 0.088 M,0.840 % w/v
same,pH,[3]; lactic acid 0.088 M,3.71
same,imiquimod in solution,[3]; lactic acid 0.100 M,0.980 % w/v
same,pH,[3]; lactic acid 0.100 M,3.61
same,imiquimod in solution,[3]; [15],0.881 % w/v
same,pH,[3]; [15],3.90
same,imiquimod in solution,[3]; [16],0.989 % w/v
same,pH,[3]; [16],3.87
same,imiquimod in solution,[3]; [17],0.969 % w/v
same,pH,[3]; [17],3.88
same,imiquimod in solution,[3]; [18],1.141 % w/v
same,pH,[3]; [18],4.46
same,imiquimod in solution,[3]; [19],1.048 % w/v
same,pH,[3]; [19],3.85
same,imiquimod in solution,[3]; [20],1.088 % w/v
same,pH,[3]; [20],3.87
same,imiquimod in solution,[3]; [21],0.972 % w/v
same,pH,[3]; [21],3.89
same,imiquimod in solution,[3]; [22],0.945 % w/v
same,pH,[3]; [22],3.88
same,imiquimod in solution,[3]; [23],1.004 % w/v
same,pH,[3]; [23],3.86
same,imiquimod in solution,[3]; [24],1.001 % w/v
same,pH,[3]; [24],3.89
same,imiquimod in solution,[3]; [25],0.997 % w/v
same,pH,[3]; [25],3.83
same,imiquimod in solution,[3]; [26],1.009 % w/v
same,pH,[3]; [26],3.82
same,imiquimod in solution,[3]; [27],0.872 % w/v
same,pH,[3]; [27],3.82
same,imiquimod in solution,[3]; phosphoric acid 0.100 M,0.159 % w/v
same,pH,[3]; phosphoric acid 0.100 M,1.80
same,imiquimod in solution,[3]; succinic acid 0.100 M,0.079 % w/v
same,pH,[3]; succinic acid 0.100 M,2.94
same,tolerability of intravesical administration,[4],"well tolerated, causes no bladder wall toxicity"
same,solubility in buffers (visual),"[5]; citrate, phosphate, acetate buffer, without acetic acid",slightly soluble
same,appearance after dilution,[5]; [28],"clear, transparent solutions"
same,pH of the systems,[5]; [28],lower than 3.6
same,solubility,"[5]; glacial (100%) acetic acid, organic solvent or mixture, thermodynamic from solid, room temperature",100 mg/mL
same,solubility (visual),"[5]; hydrochloric acid 0.1 N, 0.2 N and 2 N",slightly soluble
same,solubility in glacial (100%) acetic acid,"[5]; room temperature, visual",10 % (w/v)
same,concentration at 24 h,"[6]; pig, urine, after 24 hours, all imiquimod groups, read-out: imiquimod levels in urine",< 5000 ng/mL
same,concentration at 8 h,"[6]; plasma, after eight hours, any pig",< 2.1 ng/mL
same,pKa,[7],about 4
same,flux of imiquimod through the artificial barrier,[8],1.95e-06 g·cm^−2·s^−1
same,pH,[9]; glycerol system,5.42
same,imiquimod concentration in solution,[9]; glycerol,0.02%
same,pH,[9]; propylene glycol system,3.03
same,imiquimod concentration in solution,[9]; propylene glycol,0.02%
